Tests used:
[1] = target: α-acetylcholinesterase (AChE) (Homo sapiens, UniProt P22303); test: biochemical; format: biochemical; settings: phosphate buffer pH 7.0, 37 °C, triplicate; for IC50: read-out: Inhibition of AChE IC50; on all read-outs here: key: '-' as 'no action'
Procedure: α-Acetylcholinesterase inhibitory activity was assayed using 50 mM phosphate buffer (pH 7.0). […] 10 μL of sample solution and 10 μL of α-acetylcholinesterase solution (2 units mL^−1, in the phosphate buffer at pH 7.0) were added to 960 μL of phosphate buffer and incubated at 37 °C for 30 min, and then 20 μL of substrate were added to initiate the enzyme reaction. The enzyme reaction was carried out at 37 °C for 30 min. Product was monitored spectrophotometrically by measuring the absorbance (λ = 400 nm). Huperzine A was used as reference standard inhibitor for comparison. Dose-response curves were obtained by performing assays in the presence of increasing concentrations of inhibitors. IC50 value was determined by interpolation of the dose-response curves. For all tests, the inhibition assays were performed in triplicate.

[2] = system: cervix carcinoma cells (Hela); test: in vitro; settings: Hela cells, MTT
Procedure: (§1) IC50 of these compounds were determined by the MTT assay (see Table 2).
(§2) The cytotoxic activities were determined using MCF-7, A549, Hela, KB human tumor cells by the MTT colorimetric method. […] Subsequently 20 μL of MTT solution (5 mg/mL) were added to each well and mixed, the cells were then incubated for an additional 4 h. Culture supernatant were removed, 150 μL of DMSO were added to each well to fully dissolve the MTT—formazan crystals. Cell growth inhibition was determined by measuring the absorbance (Abs) at λ = 570 nm using a microplate reader and calculated according to the following equation: Growth inhibition = (1 − OD of treated cells/OD of control cells) × 100% (1)
(§3) The half maximal inhibitory concentrations (IC50) were obtained from linear regression analysis of the concentration-response curves plotted for each tested compound (Bliss’s software). Results were expressed as the mean value of triplicate data points.

[3] = system: human breast cancer cells (MCF-7); test: in vitro; settings: MCF-7 cells, MTT
Procedure: as §1, §2, §3

lung cancer cells (A549) = settings: MTT
Procedure: as §1, §2, §3

[4] = system: human nasopharyngeal carcinoma cells (KB); settings: MTT
Procedure: as §1, §2, §3

in vitro = settings: human
Procedure: as §1, §2, §3

α-acetylcholinesterase (AChE), sequence (P22303 32-614): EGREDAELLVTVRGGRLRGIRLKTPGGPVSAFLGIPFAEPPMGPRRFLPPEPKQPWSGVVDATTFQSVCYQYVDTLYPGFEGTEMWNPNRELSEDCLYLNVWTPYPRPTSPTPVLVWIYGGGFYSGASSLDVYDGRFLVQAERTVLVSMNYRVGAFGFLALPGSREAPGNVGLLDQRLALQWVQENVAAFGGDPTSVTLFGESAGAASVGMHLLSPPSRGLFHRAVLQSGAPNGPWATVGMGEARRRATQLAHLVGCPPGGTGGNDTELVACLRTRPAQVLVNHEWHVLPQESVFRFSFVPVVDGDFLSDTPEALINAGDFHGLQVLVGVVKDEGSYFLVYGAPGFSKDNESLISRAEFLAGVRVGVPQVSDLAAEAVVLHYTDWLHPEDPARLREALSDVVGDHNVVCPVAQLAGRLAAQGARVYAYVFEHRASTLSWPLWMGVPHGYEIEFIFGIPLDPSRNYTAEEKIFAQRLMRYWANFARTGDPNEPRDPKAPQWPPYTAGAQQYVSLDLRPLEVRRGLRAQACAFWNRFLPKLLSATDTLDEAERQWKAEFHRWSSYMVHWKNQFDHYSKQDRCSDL

| Compound | IC50 [1] [nM] | Cytotoxicity IC50 Hela [2] | cytotoxic / inhibitory activity against Hela (in words) [2] | Cytotoxicity IC50 MCF-7 [3] | cytotoxic / inhibitory activity against MCF-7 (in words) [3] | Cytotoxicity IC50 A549 (lung cancer cells (A549)) | cytotoxic / inhibitory activity against A549 (in words) (lung cancer cells (A549)) | Cytotoxicity IC50 KB [4] | cytotoxic / inhibitory activity against KB (in words) [4] | Inhibition of AChE IC50 [1] | IC50 (in vitro; Cytotoxicity IC50 Hela) [nM] | IC50 (in vitro; Cytotoxicity IC50 MCF-7) [nM] | IC50 (in vitro; Cytotoxicity IC50 Hela, Hela cells, MTT) [nM] | IC50 (in vitro; Cytotoxicity IC50 MCF-7, MCF-7 cells, MTT) [nM] |
| --- | --- | --- | --- | --- | --- | --- | --- | --- | --- | --- | --- | --- | --- | --- |
| COc1cc(OC)c2c(c1O)C(=O)c1cc(C)ncc1C2=O [Compound 3, 8-O-methylbostrycoidin] | 6710 | - | no inhibitory activities | - | no inhibitory activities | - | no inhibitory activities | - | no inhibitory activities |  |  |  |  |  |
| COc1cc(OC)c2c(c1O)C(=O)c1sc(C(C)O)cc1C2=O (centres unmarked) [Compound 1, 8-hydroxy-2-[1-hydroxyethyl]-5,7-dimethoxynaphtho[2,3-b] thiophene-4,9-dione] |  | - | no inhibitory activities | - | no inhibitory activities | - | no inhibitory activities | - | no inhibitory activities | - |  |  |  |  |
| CC(=O)O[C@H]1C[C@H]2[C@H]3[C@H]([C@@H](O)C[C@]2(C)[C@H]1[C@H](C)/C=C/[C@H](C)C(C)C)[C@@]1(C)CC[C@H](O)C[C@@H]1C(=O)[C@@H]3O [Compound 9, NGA0187] | 1890 | - | no inhibitory activities | - | no inhibitory activities | - | no inhibitory activities | - | no inhibitory activities |  |  |  |  |  |
| COc1cc(OC)c2c(c1O)C(=O)C(CC(C)=O)=C(C)C2=O [Compound 4, 8-O-methyljavanicin] |  | - | no inhibitory activities | - | no inhibitory activities | - | no inhibitory activities | - | no inhibitory activities | - |  |  |  |  |
| COC1=CC(=O)c2c(O)c(C)c3c(c2C1=O)O[C@@H](C)C3 [Compound 2, anhydrojavanicin] | 2010 | - | no inhibitory activities | - | no inhibitory activities | - | no inhibitory activities | - | no inhibitory activities |  |  |  |  |  |
| COc1cccc2c1C(=O)c1c(O)c3c(c(O)c1C2=O)C[C@@](O)(C(=O)CO)C[C@@H]3O[C@H]1C[C@H](N)[C@@H](O)[C@H](C)O1 [Epirubicin, reference compound] |  |  |  |  |  |  |  |  |  |  | 1070 | 420 |  |  |
| CC(C)[C@@H](C)/C=C/[C@@H](C)[C@H]1CC[C@@]2(O)C3=CC(=O)[C@@]4(O)C[C@@H](O)CC[C@]4(C)[C@H]3CC[C@]12C [Compound 8, 3β,5α,14α-trihydroxy-(22E,24R)-ergosta-7,22-dien-6-one] |  |  | weak inhibitory activities |  | weak inhibitory activities |  | weak inhibitory activities |  | weak inhibitory activities | - |  |  | 25400 | 24400 |
| CCc1c(OC)cc2c(c1O)C(=O)C(OC)=CC2=O [Compound 6, 6-ethyl-5-hydroxy-3,7-dimethoxynaphthoquinone] |  | - | no inhibitory activities | - | no inhibitory activities | - | no inhibitory activities | - | no inhibitory activities | - |  |  |  |  |
| CCc1c(OC)cc2c(c1O)C(=O)C[C@H](O)[C@H]2O [Compound 5, botryosphaerone D] |  | - | no inhibitory activities | - | no inhibitory activities | - | no inhibitory activities | - | no inhibitory activities | - |  |  |  |  |
| CC(C)[C@@H](C)/C=C/[C@@H](C)[C@H]1CC[C@H]2C3=CC(=O)[C@@]4(O)C[C@@H](O)CC[C@]4(C)[C@H]3CC[C@]12C [Compound 7, 3β,5α-dihydroxy-(22E,24R)-ergosta-7,22-dien-6-one] |  |  | strong or moderate cytotoxic activies |  | strong or moderate cytotoxic activies |  | strong or moderate cytotoxic activies |  | strong or moderate cytotoxic activies | - |  |  |  |  |
